Each block holds one molecule with its values, some of them ahead of it. The source made the active and inactive calls. No cut-off for these calls is given here.
Assays:
HepG2 [1] = test: Antiproliferative activity against human HepG2 cells assessed as inhibition of cell growth incubated for 72 hrs by MTT assay; type: functional, cell-based; conditions: HepG2, 72 h
HepG2 [2] = test: Induction of apoptosis in human HepG2 cells assessed as increase in total apoptotic cells at 0.15 to 0.6 uM incubated for 72 hrs by AnnexinV-FITC/propidium iodide staining based flow cytometry (reference value: 4.1%); type: functional; conditions: dose 0.15-0.6 µM
HepG2 [3] = test: Induction of G2/M phase cell cycle arrest in human HepG2 cells assessed as upregulation of p-cdc25c protein expression incubated for 72 hrs by Western blot analysis; type: functional, cell-based; conditions: dose 0.15-0.6 µM
[4] = Drug concentration in Sprague-Dawley rat plasma at 1 mg/kg, iv measured after 5 mins by LC-MS/MS analysis; type: ADME, organism-based
Quadruplex DNA [5] = test: Stabilization of c-MYC G4-quadruplex DNA in human HepG2 cells assessed as downregulation of c-myc expression incubated for 72 hrs by Western blot analysis; type: cell-based; conditions: dose 0.15-0.6 µM
[6] = Toxicity in ICR mouse xenografted with […] H22 cells assessed as abnormalities in lung at 20 mg/kg, iv administered for 21 days; type: organism-based; conditions: in vivo, 504 h, time 21 day
Quadruplex DNA [7] = test: Stabilization of c-MYC G4-quadruplex DNA in human HepG2 cells assessed as colocalization with BG4 in G4-forming region at 0.3 uM incubated for 72 hrs by confocal laser scanning microscope based analysis; type: cell-based
H22 [8] = test: Antitumor activity against […] xenografted in ICR mouse assessed as inhibition of tumor growth at 20 mg/kg, iv administered for 21 days and measured every 2 days relative to control; type: functional; conditions: H22, 504 h, time 21 day, read-out: TGI
[9] = Initial plasma concentration in Sprague-Dawley rat at 1 mg/kg, iv by LC-MS/MS analysis; type: ADME, organism-based
HepG2 [10] = test: Induction of G2/M phase cell cycle arrest in human HepG2 cells assessed as downregulation of cyclinB1 protein expression incubated for 72 hrs by Western blot analysis; type: functional, cell-based; conditions: dose 0.15-0.6 µM
[11] = Antiproliferative activity against human LX2 cells assessed as inhibition of cell growth incubated for 72 hrs by MTT assay; type: functional, cell-based; conditions: LX-2, 72 h
[12] = Clearance in Sprague-Dawley rat at 1 mg/kg, iv measured for 24 hrs by LC-MS/MS analysis; type: ADME, organism-based; conditions: in vivo
[13] = Toxicity in ICR mouse xenografted with […] H22 cells assessed as abnormalities in kidney at 20 mg/kg, iv administered for 21 days; type: organism-based; conditions: in vivo, 504 h, time 21 day
[14] = MRT (0 to t) in Sprague-Dawley rat at 1 mg/kg, iv measured for 24 hrs by LC-MS/MS analysis; type: ADME, organism-based; conditions: in vivo
[15] = Half life in Sprague-Dawley rat at 1 mg/kg, iv measured for 24 hrs by LC-MS/MS analysis; type: ADME, organism-based; conditions: in vivo
HepG2 [16] = test: Induction of apoptosis in human HepG2 cells assessed as increase in cleaved caspase 3 expression incubated for 72 hrs by Western blot analysis; type: functional, cell-based; conditions: dose 0.15-0.6 µM
H22 [17] = test: Antitumor activity against […] xenografted in ICR mouse assessed as reduction in tumor volume administered intravenously for 21 days and measured every 2 days; type: functional, cell-based; conditions: dose 10-20 mg/kg, route iv, time 21.0 day
HepG2 [18] = test: Induction of cell cycle arrest in human HepG2 cells assessed as accumulation of cells at S phase at 0.15 to 0.6 uM incubated for 72 hrs by RNaseA/PI staining based flow cytometry analysis (reference value: 35.98%); type: functional; conditions: dose 0.15-0.6 µM
HepG2 [19] = test: Effect on PI3K total protein level in human HepG2 cells at 0 to 0.6 uM incubated for 72 hrs by Western blot analysis; type: functional, cell-based; conditions: dose 0-0.6 µM
SK-HEP1 = test: Antiproliferative activity against human SK-HEP1 cells assessed as inhibition of cell growth incubated for 72 hrs by MTT assay; type: functional, cell-based; conditions: SK-HEP1, 72 h
HepG2 [20] = test: Effect on AKT total protein level in human HepG2 cells at 0 to 0.6 uM incubated for 72 hrs by Western blot analysis; type: functional, cell-based; conditions: dose 0-0.6 µM
Hep 3B2 = test: Antiproliferative activity against human Hep3B cells assessed as inhibition of cell growth incubated for 72 hrs by MTT assay; type: functional, cell-based
[21] = Toxicity in ICR mouse xenografted with […] H22 cells assessed as abnormalities in heart at 20 mg/kg, iv administered for 21 days; type: organism-based; conditions: in vivo, 504 h, time 21 day
Quadruplex DNA [22] = test: Binding affinity to c-MYC G4-quadruplex DNA (unknown origin) using fluorescent tagged FPu18T model assessed as stabilization by measuring change in melting temperature at 2 uM incubated in presence of non-fluorescent ds26 DNA by fluorescence based analysis; type: nucleic-acid assay
HepG2 [23] = test: Antiproliferative activity against cisplatin-resistant human HepG2 cells assessed as inhibition of cell growth incubated for 72 hrs by MTT assay; type: functional, cell-based; conditions: HepG2, 72 h
HepG2 [24] = test: Induction of apoptosis in human HepG2 cells assessed as increase in cytochrome C protein expression incubated for 72 hrs by Western blot analysis; type: functional, cell-based; conditions: dose 0.15-0.6 µM
[25] = Toxicity in ICR mouse xenografted with […] H22 cells assessed as abnormalities in spleen at 20 mg/kg, iv administered for 21 days; type: organism-based; conditions: in vivo, 504 h, time 21 day
DNA = test: Binding affinity to duplex DNA (unknown origin) using fluorescent tagged F10T model assessed as stabilization by measuring change in melting temperature at 2 uM by fluorescence based analysis; type: nucleic-acid assay
Quadruplex DNA [26] = test: Stabilization of c-MYC G4-quadruplex DNA in human HepG2 cells assessed as BG4 foci formation at 0.3 uM incubated for 72 hrs by confocal laser scanning microscope based analysis; type: cell-based
HepG2 [27] = test: Induction of G2/M phase cell cycle arrest in human HepG2 cells assessed as downregulation of cdc2 protein expression incubated for 72 hrs by Western blot analysis; type: functional, cell-based; conditions: dose 0.15-0.6 µM
Quadruplex DNA [28] = test: Binding affinity to c-MYC G4-quadruplex DNA (unknown origin) using fluorescent tagged FPu18T model assessed as stabilization by measuring change in melting temperature at 2 uM by fluorescence based analysis; type: nucleic-acid assay
[29] = AUC (0 to t) in Sprague-Dawley rat at 1 mg/kg, iv measured for 24 hrs by LC-MS/MS analysis; type: ADME, organism-based; set-up: dose 1 mg/kg, time 24 hrs, route iv; conditions: in vivo
HepG2 [30] = test: Downregulation of p-PI3K protein expression in human HepG2 cells incubated for 72 hrs by Western blot analysis; type: functional, cell-based; conditions: dose 0-0.6 µM
HepG2 [31] = test: Potency index, ratio of cisplatin IC50 to test compound IC50 for antiproliferative activity against cisplatin-resistant human HepG2 cells assessed as inhibition of cell growth incubated for 72 hrs by MTT assay; type: functional
HepG2 [32] = test: Induction of apoptosis in human HepG2 cells assessed as increase in Bax protein expression incubated for 72 hrs by Western blot analysis; type: functional, cell-based; conditions: dose 0.15-0.6 µM
HepG2 [33] = test: Downregulation of p-AKT protein expression in human HepG2 cells incubated for 72 hrs by Western blot analysis; type: functional, cell-based; conditions: dose 0-0.6 µM
HepG2 [34] = test: Induction of apoptosis in human HepG2 cells assessed as reduction in Bcl-2 protein expression at […] incubated for 72 hrs by Western blot analysis; type: functional, cell-based; conditions: dose lower 0.15 µM
[35] = Toxicity in ICR mouse xenografted with […] H22 cells assessed as reduction in body weight at 10 to 20 mg/kg, iv administered for 21 days and measured every 2 days; type: organism-based; conditions: in vivo, 504 h, dose 10-20 mg/kg, time 21 day
HepG2 [36] = test: Potency index, ratio of cisplatin IC50 to test compound IC50 for antiproliferative activity against human HepG2 cells assessed as inhibition of cell growth incubated for 72 hrs by MTT assay; type: functional
HepG2 [37] = test: Induction of ROS production in human HepG2 cells assessed as increase in ROS positive cells at 0.06 uM preincubated with ROS scavenger, NAC followed by compound addition and further incubated for 72 hrs by DCF-DA staining based flow cytometry analysis (reference value: 4.21%); type: functional
[38] = Toxicity in ICR mouse xenografted with […] H22 cells assessed as abnormalities in liver at 20 mg/kg, iv administered for 21 days; type: organism-based; conditions: in vivo, 504 h, time 21 day
HepG2 [39] = test: Induction of ROS production in human HepG2 cells assessed as increase in ROS positive cells at 0 to 0.60 uM incubated for 72 hrs by DCF-DA staining based flow cytometry analysis (reference value: 4.21%); type: functional; conditions: dose 0-0.6 µM
Huh-7 = test: Antiproliferative activity against human Huh-7 cells assessed as inhibition of cell growth incubated for 72 hrs by MTT assay; type: functional, cell-based; conditions: Huh-7, 72 h
HepG2 [40] = test: Induction of cell cycle arrest in human HepG2 cells assessed as accumulation of cells at G2 phase at 0.15 to 0.6 uM incubated for 72 hrs by RNaseA/PI staining based flow cytometry analysis (reference value: 12.99%); type: functional; conditions: dose 0.15-0.6 µM
H22 [41] = test: Antitumor activity against […] xenografted in ICR mouse assessed as reduction in tumor weight administered intravenously for 21 days; type: functional, cell-based; conditions: dose 10-20 mg/kg, route iv, time 21.0 day
H22 [42] = test: Antitumor activity against […] xenografted in ICR mouse assessed as inhibition of tumor growth at 10 mg/kg, iv administered for 21 days and measured every 2 days relative to control; type: functional; conditions: H22, 504 h, time 21 day, read-out: TGI
HepG2 [43] = test: Induction of mitochondrial dysfunction in human HepG2 cells assessed as increase in cells with collapsed mitochondrial membrane potential at 0.15 to 0.6 uM incubated for 72 hrs by JC-1 staining based flow cytometry analysis (reference value: 4.84%); type: functional; conditions: dose 0.15-0.6 µM

IC50 (HepG2 [1]): 7180 nM
SMILES: CCCCCCCCc1c2[n+](cc3c(NCCCN)c(OC)ccc13)CCc1cc3c(cc1-2)OCO3

concentration at 5 min [4]: 758 ng/mL | C0 [9]: 872 ng/mL | clearance [12]: 21.7 mL/min/kg | MRT last at 24 h [14]: 1.81 h | half-life [15]: 2.62 h | IC50 (SK-HEP1): 1070 nM | ΔTm (Quadruplex DNA [22]): 20.9 °C | IC50 (HepG2 [23]): 2120 nM | IC50 (HepG2 [1]): 640 nM | ΔTm (DNA): 0.2 °C | ΔTm (Quadruplex DNA [28]): 21.4 °C | AUC(0-t) at 24 h [29]: 674 ng·h/mL | IC50 (Huh-7): 580 nM
SMILES: CCCCCCCCc1c2[n+](cc3c(NCCN(C)C)c(OC)ccc13)CCc1cc3c(cc1-2)OCO3.[Cl-]
Activity (HepG2 [2]): 51.25% | Activity (HepG2 [3]): Dose-Dependent Effect | Activity (Quadruplex DNA [5]): Dose-Dependent Effect | Activity [6]: Non-Toxic | Activity (Quadruplex DNA [7]): Active | inhibition in vivo at 20 mg/kg (H22 [8]): 62.9% | Activity (HepG2 [10]): Dose-Dependent Effect | IC50 [11]: 8620 nM | Activity [13]: Non-Toxic | Activity (HepG2 [16]): Dose-Dependent Effect | Activity (H22 [17]): Dose-Dependent Effect | Activity (HepG2 [18]): 21.63% | Activity (HepG2 [19]): inactive | Activity (HepG2 [20]): inactive | IC50 (Hep 3B2): 1150 nM | Activity [21]: Non-Toxic | Activity (HepG2 [24]): Dose-Dependent Effect | Activity [25]: Non-Toxic | Activity (Quadruplex DNA [26]): Active | Activity (HepG2 [27]): Dose-Dependent Effect | Activity (HepG2 [30]): Dose-Dependent Effect | Ratio IC50 (HepG2 [31]): >40 | Activity (HepG2 [32]): Dose-Dependent Effect | Activity (HepG2 [33]): Dose-Dependent Effect | Activity (HepG2 [34]): Active | Activity [35]: Non-Toxic | Ratio IC50 (HepG2 [36]): >10 | Activity (HepG2 [37]): 3.67% | Activity [38]: Non-Toxic | Activity (HepG2 [39]): 52.48% | Activity (HepG2 [40]): 27.61% | Activity (H22 [41]): Dose-Dependent Effect | inhibition in vivo at 10 mg/kg (H22 [42]): 51.8% | Activity (HepG2 [43]): 40.73%

IC50 (HepG2 [1]): 2030 nM
SMILES: CCCCCCCCCCc1c2[n+](cc3c(NCCO)c(OC)ccc13)CCc1cc3c(cc1-2)OCO3

IC50 (HepG2 [1]): 5170 nM
SMILES: CCCCCCCCc1c2[n+](cc3c(NCCCCN)c(OC)ccc13)CCc1cc3c(cc1-2)OCO3

Source: ChEMBL document CHEMBL5241127, “Design, synthesis and biological evaluation of novel 9-N-substituted-13-alkylberberine derivatives from Chinese medicine as anti-hepatocellular carcinoma agents” (Bioorg Med Chem, 2023)
